Assays:
[1] = test system: gut microbiome gene families; test: Gene differential abundance analysis of stool metagenome (HUMAnN2, Uniref50/Uniref90, transposases); assay type: in vivo, human
Source text: The adaptors, human reads contamination, and low quality sequences were removed from the raw sequencing data using software kneaddata. Trimmomatic (Bolger et al., Bioinformatics 30, 2114 (2014)) was invoked by kneaddata for removing adaptor sequence, trimming low quality bases, and removing low quality reads. Bowtie (Langmead and Salzberg, Nat. Methods 9, 357 (2012)) was invoked by kneaddata for human reads detection. • Removing sequencing noise: For each sample, if the abundance of one species was smaller than 0.05% of the maximum abundance of all species in the sample, it was considered as noise, and the abundance of this species in the sample was set as 0. • Imputing missing value (i.e. Os): Because log 2 transformation was needed in further analysis, adjustment factor (e) was added to the abundance matrix, where e equals 50% of the minimum non-zero abundance value of all samples. • Removing low abundance species: A species was removed if the relative abundance was lower than 0.1% in >=95% of samples. 128 species was kept for further analysis.
HUMAnN2 (Abubucker et al., PLoS Comput. Biol. 8, e1002358 (2012)) was used to calculate gene and pathway abundance from metagenomic sequencing data. Uniref50 (UniProt® Consortium, Nucleic Acids Res. 43, D204 (2015)) was used for gene family definition. MetaCyc (Caspi et al., Nucleic Acids Res. 42, D459 (2014)) and KEGG (Kanehisa and Goto, Nucleic Acids Res. 28, 27 (2000); Kanehisa et al., Nucleic Acids Res. 44, D457 (2016)) were used for pathway analysis. • Gene family identification: Initially, 989251 gene families were identified from the dataset by HUMAnN2. Quantile normalization was implemented. For each sample, the RPK values were added up till 90% percentile of all genes (normalization factor, nf). RPK value of each gene in each sample was then divided by the nf of the sample, and multiplied with the mean of nf of all samples. 683270 uncharacterized genes were removed. Genes undetected in over 90% of samples (101994) were removed. 203987 genes were kept. Due to the large number of genes identified, 25% of the most varying genes were selected for further analysis. The most varying genes were defined by the coefficient variation (cv=sd/mean) of log 2 transformed value. • MetaCyc pathway identification: HUMAnN2 identified 567 MetaCyc pathways from the dataset. Quantile normalization was then performed. For each sample, the abundance values were added up till 90% percentile of all pathways (normalization factor, nf). Each pathway abundance in each sample was divided by the nf of the sample, and then multiplied with the mean of nf for all samples. The low abundance pathways (52), which were not detected on over 90% of all samples, were removed. 515 high quality MetaCyc pathways were kept for further analysis. • KEGG pathway identification: HUMAnN2 identified 160 KEGG pathways from the dataset. Quantile normalization was applied, and low abundance pathways were removed. 66 high quality KEGG pathways were kept for further analysis.
• Species differential abundance analysis: The time effect of OCA treatment was studied on three OCA dose groups separately using Friedman rank test. The dose effect of OCA treatment was studied on three time point separately, and Kruskal-Wallis test was used. • Gene differential abundance analysis: For each of the most varying genes, repeated-measure ANOVA was performed to study the time effect and OCA dose effect on gene abundance change. […]

[2] = test system: bacterial strains found in the human small intestine; test: Inhibition of bacterial growth by bile acids, microbroth dilution, optical density at 630 nm; assay type: cell-based
Experimental: The toxicity of several bile acids to various gut microbiome species was examined. Representative species were exposed to different bile acids at a range of concentrations under either aerobic or anaerobic condition, and the growth of the species at these concentrations was measured by determining the optical density of the culture.
Lactobacillus casei CP was purchased from Custom Probiotics Inc. (Glendale, Calif.) as L. casei Custom Probiotic Powder (strain confirmed by Sanger sequencing of the 16S gene). Pediococcus pentosaceus KE-99 was purchased from Probiohealth (Beverly Hills, Calif.) as KE-99 LACTO Tablet (strain confirmed by Sanger sequencing of the 16S gene). L. casei 393, Streptoccocus thermophilus LMD-9, Akkermansia muciniphila Muc, and Veillonella parvula Te3 were purchased from the American Type Culture Collection (ATCC, Manassas, Va.). Lactococcus lactis NZ9000 was purchased from BOCA Scientific (Boca Raton, Fla.). Escherichia coli Nissle was obtained from Dr. Mark Goulian (University of Pennsylvania, Philadelphia, Pa.).
L. casei, P. pentasaceus, and L. lactis were grown in de Man, Rogosa, and Sharpe (MRS) medium (Anaerobe Systems, Morgan Hill, Calif.); E. coli was grown in lysogeny broth (LB) medium (Fisher Scientific, USA); S. thermophilus and A. muciniphila were grown in brain heart infusion (BHI) medium (Fisher Scientific, USA and Anaerobe Systems, Morgan Hill, Calif.), and; V. parvula was grown in reinforced clostridial medium (Fisher Scientific, USA). Aerobic cultures were incubated at 37° C.; anaerobic cultures were incubated at 37° C. in an anaerobic glove box (Coy Laboratories, Grass Lake, Mich.).
Glycochenodeoxycholic, glycocholic, and taurocholic acids were purchased from Sigma Aldrich (St. Louis, Mo.). Obeticholic acid was provided by Intercept Pharmaceuticals, Inc. (New York, N.Y.).
Inhibition of bacterial growth by bile acids was determined by the microbroth dilution method. Plates were prepared with 100 uL of medium containing the appropriate concentrations of bile acid. Wells were inoculated with 1 uL of an overnight culture, covered, and incubated overnight (3 days for A. muciniphila and V. parvula, which are slow growing organisms). Growth was measured via optical density at 630 nm, and measurements were zeroed against wells containing the appropriate bile acid level with no bacteria. All tests were performed in triplicate. Data is expressed as the percent (%) reduction in growth, which was calculated against controls (i.e., no bile acids). The responses of representative species to different concentrations of bile acids are illustrated by the heat maps shown in FIGS. 53A-53D.

[3] = Calculated small intestinal luminal concentration of OCA; set-up: species or system human

glycosyl transferase genes in the presence of OCA ([1]; in vivo): significantly increased
calculated physiologic level that would be encountered in the human small intestine [3]: approximately 12 micromolar
Structure (SMILES): CC[C@H]1[C@@H](O)[C@@H]2[C@H](CC[C@]3(C)[C@@H]([C@H](C)CCC(=O)O)CC[C@@H]23)[C@@]2(C)CC[C@@H](O)C[C@@H]12 [OCA, 3α,7α-dihydroxy-6α-ethyl-5β-cholan-24-oic acid]
number of genes with significant time-dependent effects in response to OCA treatment ([1]; Uniref90 high stringency genomic analysis, eight bacterial species): 782
representation of bacterial transposase genes ([1]; all three OCA doses): robust increase
OCA dose effect on gene abundance ([1]; repeated measure ANOVA, FDR<0.05): No OCA dose effect or OCA dose×day interaction was observed
number of genes differentially abundant over time ([1]; repeated measure ANOVA, FDR<0.05 for time effect): 112
effect on growth at calculated physiologic levels of the human small intestine ([2]; approximately 12 micromolar, aerobically or anaerobically): no effect on any strain tested
effect on growth at high concentrations ([2]; high concentrations of OCA): growth inhibitory effect on several strains
